{"source": "patent US20100267561A1", "about": "“HERBICIDAL PYRIDAZINONE DERIVATIVES” (priority 2007, published 2010)", "test_in_all_cases": "Test B pre-/postemergence plant response", "format_in_all_cases": "in vivo", "details_in_all_cases": "Preemergence", "key": {"[1]": {"tested_on": "surinam grass (Brachiaria decumbens)", "how_it_was_run": "(§1)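 Visual scoring from 0 (no effect) to 100 (complete control) against untreated controls was done 13 to 15 days after greenhouse treatment. Chemicals were formulated in a surfactant-containing non-phytotoxic solvent and applied to soil preemergence or to 1- to 4-leaf (2-18 cm) plants postemergence.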"}, "[2]": {"tested_on": "pigweed (Amaranthus retroflexus)", "how_it_was_run": "as §1"}, "soybean (Glycine max)": {"tested_on": "soybean (Glycine max)", "how_it_was_run": "as §1"}, "[3]": {"tested_on": "Italian ryegrass (Lolium multiflorum)", "how_it_was_run": "as §1"}, "[4]": {"tested_on": "cocklebur (Xanthium strumarium)", "how_it_was_run": "as §1"}, "kochia (Kochia scoparia)": {"tested_on": "kochia (Kochia scoparia)", "how_it_was_run": "as §1"}, "[5]": {"tested_on": "downy bromegrass (Bromus tectorum)", "how_it_was_run": "as §1"}, "[6]": {"tested_on": "common (oilseed) sunflower (Helianthus annuus)", "how_it_was_run": "as §1"}, "[7]": {"tested_on": "Russian thistle (Salsola iberica)", "how_it_was_run": "as §1"}, "[8]": {"tested_on": "woolly cupgrass (Eriochloa villosa)", "how_it_was_run": "as §1"}, "[9]": {"tested_on": "catchweed bedstraw (Galium aparine)", "how_it_was_run": "as §1"}, "[10]": {"tested_on": "goosegrass (Eleusine indica)", "how_it_was_run": "as §1"}, "[11]": {"tested_on": "large crabgrass (Digitaria sanguinalis)", "how_it_was_run": "as §1"}, "[12]": {"tested_on": "common ragweed (Ambrosia elation)", "how_it_was_run": "as §1"}, "[13]": {"details": "16 g ai/ha, scale 0 to 100 (0 no effect, 100 complete control)"}, "[14]": {"details": "31 g ai/ha, 0 to 100 scale, 0 no effect, 100 complete control"}}, "data": [{"smiles": "Cn1ncc(O)c(-c2nn(-c3ccc(Cl)cc3)cc2Br)c1=O", "note": "[Compound 31]", "values": [{"measurement": "Plant response rating, Surinam Grass", "setting": "[1]; [13]", "result": 80}, {"measurement": "Plant response rating, Surinam Grass", "setting": "[1]; [14]", "result": 100}, {"measurement": "Plant response rating, Surinam Grass", "setting": "[1]; 62 g ai/ha, scale 0 to 100", "result": 100}, {"measurement": "Surinam Grass plant response rating", "setting": "[1]; 8 g ai/ha, scale 0 to 100", "result": 80}, {"measurement": "Plant response rating, Pigweed", "setting": "[2]; [13]", "result": 0}, {"measurement": "Plant response rating, Pigweed", "setting": "[2]; [14]", "result": 0}, {"measurement": "Plant response rating, Pigweed", "setting": "[2]; 62 g ai/ha, scale 0 to 100", "result": 0}, {"measurement": "Pigweed plant response rating", "setting": "[2]; 8 g ai/ha, scale 0 to 100", "result": 0}, {"measurement": "Plant response rating, Soybean", "setting": "soybean (Glycine max); [13]", "result": 0}, {"measurement": "Plant response rating, Soybean", "setting": "soybean (Glycine max); [14]", "result": 0}, {"measurement": "Plant response rating, Soybean", "setting": "soybean (Glycine max); 62 g ai/ha, scale 0 to 100", "result": 60}, {"measurement": "Soybean plant response rating", "setting": "soybean (Glycine max); 8 g ai/ha, scale 0 to 100", "result": 0}, {"measurement": "Plant response rating, Ryegrass, Italian", "setting": "[3]; [13]", "result": 90}, {"measurement": "Plant response rating, Ryegrass, Italian", "setting": "[3]; [14]", "result": 90}, {"measurement": "Plant response rating, Ryegrass, Italian", "setting": "[3]; 62 g ai/ha, scale 0 to 100", "result": 100}, {"measurement": "Ryegrass, Italian plant response rating", "setting": "[3]; 8 g ai/ha, scale 0 to 100", "result": 50}, {"measurement": "Plant response rating, Cocklebur", "setting": "[4]; [13]", "result": 0}, {"measurement": "Plant response rating, Cocklebur", "setting": "[4]; [14]", "result": 0}, {"measurement": "Plant response rating, Cocklebur", "setting": "[4]; 62 g ai/ha, scale 0 to 100", "result": 0}, {"measurement": "Cocklebur plant response rating", "setting": "[4]; 8 g ai/ha, scale 0 to 100", "result": 0}, {"measurement": "Plant response rating, Kochia", "setting": "kochia (Kochia scoparia); [13]", "result": 0}, {"measurement": "Plant response rating, Kochia", "setting": "kochia (Kochia scoparia); [14]", "result": 0}, {"measurement": "Plant response rating, Kochia", "setting": "kochia (Kochia scoparia); 62 g ai/ha, scale 0 to 100", "result": 0}, {"measurement": "Kochia plant response rating", "setting": "kochia (Kochia scoparia); 8 g ai/ha, scale 0 to 100", "result": 0}, {"measurement": "Plant response rating, Bromegrass, Downy", "setting": "[5]; [13]", "result": 0}, {"measurement": "Plant response rating, Bromegrass, Downy", "setting": "[5]; [14]", "result": 65}, {"measurement": "Plant response rating, Bromegrass, Downy", "setting": "[5]; 62 g ai/ha, scale 0 to 100", "result": 85}, {"measurement": "Bromegrass, Downy plant response rating", "setting": "[5]; 8 g ai/ha, scale 0 to 100", "result": 0}, {"measurement": "Plant response rating, Sunflower", "setting": "[6]; [13]", "result": 0}, {"measurement": "Plant response rating, Sunflower", "setting": "[6]; [14]", "result": 0}, {"measurement": "Plant response rating, Sunflower", "setting": "[6]; 62 g ai/ha, scale 0 to 100", "result": 0}, {"measurement": "Sunflower plant response rating", "setting": "[6]; 8 g ai/ha, scale 0 to 100", "result": 0}, {"measurement": "Plant response rating, Russian Thistle", "setting": "[7]; [13]", "result": 0}, {"measurement": "Plant response rating, Russian Thistle", "setting": "[7]; [14]", "result": 0}, {"measurement": "Plant response rating, Russian Thistle", "setting": "[7]; 62 g ai/ha, scale 0 to 100", "result": 0}, {"measurement": "Russian Thistle plant response rating", "setting": "[7]; 8 g ai/ha, scale 0 to 100", "result": 0}, {"measurement": "Plant response rating, Cupgrass, Woolly", "setting": "[8]; [13]", "result": 98}, {"measurement": "Plant response rating, Cupgrass, Woolly", "setting": "[8]; [14]", "result": 100}, {"measurement": "Plant response rating, Cupgrass, Woolly", "setting": "[8]; 62 g ai/ha, scale 0 to 100", "result": 100}, {"measurement": "Cupgrass, Woolly plant response rating", "setting": "[8]; 8 g ai/ha, scale 0 to 100", "result": 70}, {"measurement": "Plant response rating, Galium", "setting": "[9]; [13]", "result": 0}, {"measurement": "Plant response rating, Galium", "setting": "[9]; [14]", "result": 0}, {"measurement": "Plant response rating, Galium", "setting": "[9]; 62 g ai/ha, scale 0 to 100", "result": 50}, {"measurement": "Galium plant response rating", "setting": "[9]; 8 g ai/ha, scale 0 to 100", "result": 0}, {"measurement": "Plant response rating, Goosegrass", "setting": "[10]; [13]", "result": 90}, {"measurement": "Plant response rating, Goosegrass", "setting": "[10]; [14]", "result": 100}, {"measurement": "Plant response rating, Goosegrass", "setting": "[10]; 62 g ai/ha, scale 0 to 100", "result": 100}, {"measurement": "Goosegrass plant response rating", "setting": "[10]; 8 g ai/ha, scale 0 to 100", "result": 85}, {"measurement": "Plant response rating, Crabgrass, Large", "setting": "[11]; [13]", "result": 90}, {"measurement": "Plant response rating, Crabgrass, Large", "setting": "[11]; [14]", "result": 100}, {"measurement": "Plant response rating, Crabgrass, Large", "setting": "[11]; 62 g ai/ha, scale 0 to 100", "result": 100}, {"measurement": "Crabgrass, Large plant response rating", "setting": "[11]; 8 g ai/ha, scale 0 to 100", "result": 80}, {"measurement": "Plant response rating, Ragweed", "setting": "[12]; [13]", "result": 0}, {"measurement": "Plant response rating, Ragweed", "setting": "[12]; [14]", "result": 0}, {"measurement": "Plant response rating, Ragweed", "setting": "[12]; 62 g ai/ha, scale 0 to 100", "result": 0}, {"measurement": "Ragweed plant response rating", "setting": "[12]; 8 g ai/ha, scale 0 to 100", "result": 0}]}]}
